The values that follow come from patent US7932271B2, “Heterocyclic methyl sulfone derivative” (Daiichi Pharmaceutical Co., Ltd., priority 2003, dated 2011).

The subject of data set [1] is β amyloid protein (Aβ) secreted by E35 cells (human glioma H4 cells transfected with APP751 gene). Kind of data set: Inhibition of production or secretion of β-amyloid protein (Aβ) in E35 cells, sandwich ELISA of the supernatant. As to conditions: 24 hours with test compound, compared to DMSO control cells, read-out: Activity (IC50, concentration at which 50% inhibition of Aβ production was observed). In kind it is cell-based. The method, then:
The inhibitory activity against formation of β amyloid protein of the compounds obtained in Examples was tested in the method described bellow.
E35 cells were established by transfecting APP751 gene which is a wild type human β-amyloid protein precursor into human glioma cells (H4 cells).
E35 cells were seeded in 96-well plates and cultured in an incubator of 37° C. by using a Dulbecco's Modified Eagle's Medium containing 10% inactivated fetal bovine serum (10% FBS-DMEM). Twenty-four hours after seeding, a test compound dissolved in DMSO so as to give its concentration to be 2000 times as much as that of the final concentration was added to the medium in an amount of 1/2000 capacity of the culture medium. The cells were cultured for additional twenty-four hours, and then the supernatant was collected. The amount of β amyloid protein (Aβ) secreted in the supernatant was measured by the sandwich enzyme-linked immunosorbent assay (ELISA). Described specifically, a monoclonal antibody 25-1, which recognized Aβ25-35, was immobilized onto a 96-well ELISA plate, followed by the incubation at 4° C. for 16 to 20 hours. After washing with a phosphate buffer (pH 7.4) (PBS), a biotinylated monoclonal antibody MA32-40, which recognized Aβ1-8, was added, and the plate was kept at 4° C. for 2 hours. After the supernatant was removed and the well was washed sufficiently with PBS, alkaline phosphatase-conjugated streptavidin was added to the plate. Absorbance was measured while adding BlouPhos (manufactured by KPL) as a substrate. An amount of Aβ contained in the supernatant was calculated using a calibration curve separately created using Aβ of a known concentration. IC50 of the test compound was presented as the concentration at which 50% inhibition of Aβ production was observed compared to the amount of Aβ of the control cells to which only DMSO was added.
When there is at least 10-times difference between the IC50 and the concentration at which cytotoxicity appears, then the compound is judged as a compound having an inhibitory activity against production or secretion of β amyloid protein.
A general note: An ELISA detects its analyte on a solid surface through an enzyme-linked reagent.

SMILES strings stand for the structures.

With `O=S(=O)(c1ccc(Cl)cc1)C(c1ccc(C2OCCO2)cn1)c1cc(F)ccc1F` (stereo not shown) [Example 42, 2-[(4-Chlorophenylsulfonyl)-(2,5-difluorophenyl)methyl]-5-(1,3-dioxolan-2-yl)pyridine], the melting point (as a rule, the temperature, or range, at which the solid turns liquid) fell in the range of 167 to 168 °C. Besides, the IC50 in data set [1] lay in the range of 50 to 500 nM.

As to `Nc1cc(C(c2cc(F)ccc2F)S(=O)(=O)c2ccc(Cl)s2)c(Cl)cn1` (stereo not shown) [Example 243, [5-Chloro-4-[(5-chlorothiophen-2-ylsulfonyl)(2,5-difluorophenyl)methyl]pyridin-2-yl]amine], the melting point lay within 170 to 171 °C. In data set [1], the IC50 was 5 to 50 nM.

The compound `Nc1cc(C(c2cc(F)ccc2F)S(=O)(=O)c2ccc(F)cc2)c(Cl)cn1` (stereo not shown) [Example 215, [5-Chloro-4-[(2,5-difluorophenyl)-(4-fluorophenylsulfonyl)methyl]pyridin-2-yl]amine] came in with a melting point of 157 to 159 °C. For the same compound, in data set [1], the IC50 was < 5 nM.

As for `O=S(=O)(Cc1ccncc1)Nc1cc(C(c2cc(F)ccc2F)S(=O)(=O)c2ccc(Cl)cc2)c(Cl)cn1` (stereo not shown) [Example 269, N-[5-Chloro-4-[(4-chlorophenylsulfonyl)(2,5-difluorophenyl)methyl]pyridin-2-yl]-1-pyridin-4-ylmethanesulfonamide], the melting point is 257 °C (dec.). Also, the IC50 in data set [1] was < 5 nM.

Regarding `CS(=O)(=O)Nc1cc(C(c2cc(C#N)ccc2F)S(=O)(=O)c2ccc(Cl)cc2)c(Cl)cn1` (stereo not shown) [Example 236, N-[5-Chloro-4-[(4-chlorophenylsulfonyl)(5-cyano-2-fluorophenyl)methyl]pyridin-2-yl]methanesulfonamide], the melting point is 118 to 120 °C. For the same compound, the IC50 in data set [1] is < 5 nM.

Consider `CS(=O)(=O)Nc1cc(C(c2cc(F)ccc2F)S(=O)(=O)c2ccc(Cl)cn2)c(Cl)cn1` (stereo not shown) [Example 242, N-[5-Chloro-4-[(5-chloropyridin-2-ylsulfonyl)(2,5-difluorophenyl)methyl]pyridin-2-yl]methanesulfonamide], for which the melting point was 214 to 216 °C. The IC50 in data set [1] was in the range of 50 to 500 nM.

`Nc1cc(C(c2cc(F)ccc2F)S(=O)(=O)c2ccc(Cl)cn2)c(Cl)cn1` (stereo not shown) [Example 241, [5-Chloro-4-[(5-chloropyridin-2-ylsulfonyl)(2,5-difluorophenyl)methyl]pyridin-2-yl]amine]: the melting point lay in the range of 187 to 189 °C. The IC50 in data set [1] was 5 to 50 nM.

As for `CN(CCO)c1cc(C(c2cc(F)ccc2F)S(=O)(=O)c2ccc(Cl)cc2)c(Cl)cn1` (stereo not shown) [Example 164, 2-[[5-Chloro-4-[(4-chlorophenylsulfonyl)-(2,5-difluorophenyl)methyl]pyridin-2-yl](methyl)amino]ethanol], the melting point lay within 88 to 89 °C. Further, the IC50 in data set [1] is < 5 nM.
